The target in one data set is T1, human URAT1 (Homo sapiens, UniProt Q96S37).
T1 construct: Human URAT1 full length cDNA was subcloned to expression vector pcDNA3.1; expressed in transfected cells; host or cells: HEK293 cells (pcDNA3.1, geneticin-selected)
T1 sequence (Q96S37 1-553): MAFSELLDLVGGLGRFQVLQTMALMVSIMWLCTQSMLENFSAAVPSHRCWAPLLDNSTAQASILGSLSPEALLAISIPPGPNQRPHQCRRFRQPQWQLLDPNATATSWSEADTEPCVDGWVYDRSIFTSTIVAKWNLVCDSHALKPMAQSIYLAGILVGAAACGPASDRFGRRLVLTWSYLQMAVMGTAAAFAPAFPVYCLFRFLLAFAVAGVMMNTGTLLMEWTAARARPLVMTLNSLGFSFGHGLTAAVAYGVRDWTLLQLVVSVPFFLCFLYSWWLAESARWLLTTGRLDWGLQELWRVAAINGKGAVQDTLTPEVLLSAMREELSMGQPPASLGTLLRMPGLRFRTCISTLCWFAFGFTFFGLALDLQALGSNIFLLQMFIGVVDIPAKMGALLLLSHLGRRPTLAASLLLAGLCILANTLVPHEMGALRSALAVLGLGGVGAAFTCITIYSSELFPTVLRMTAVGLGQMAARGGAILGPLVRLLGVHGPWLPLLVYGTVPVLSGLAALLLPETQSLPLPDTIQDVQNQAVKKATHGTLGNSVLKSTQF
In words: Uric acid transport inhibitory test using human URAT1-expressing cells. The note with it: human URAT1 expressing HEK293 cells, uptake of 14C-labeled uric acid for 5 min, room temperature; read-out: hURAT1 (IC50, concentration necessary for inhibiting the uric acid transport rate by 50%). Type of data set: cell-based.

Another data set concerns the target T2, CYP2C9 (Homo sapiens, UniProt P11712).
T2 construct: Human liver microsome (20 mg protein/mL, 5 μL, Xenotech LLC, purchased from Lenexa Kans.); tissue Xenotech LLC; host or cells: human liver microsome
In words: CYP inhibitory test using human liver microsome. Type of data set: in vitro ADME. The note with it: human liver microsomes, pH 7.4, probe diclofenac, model substrate diclofenac, 37° C. 10 min, LC/MS/MS, read-out: CYP2C9 inhibition IC50. Here is the method: Reference Experimental Example 2 Cyp Inhibitory Test Using Human Liver Microsome
Human liver microsome (20 mg protein/mL, 5 μL, Xenotech LLC, purchased from Lenexa Kans.) was suspended in 100 mM potassium phosphate buffer (70 μL, pH 7.4), mixed with a solution (0.5 μL) of the Example compound dissolved in DMSO and preincubated at 37° C. for 5 min. NADPH producing system coenzyme solution (β-nicotinamide adenine dinucleotide phosphate: 5.2 mM, D-glucose-6-phosphate: 13.2 mM, magnesium chloride: 13.2 mM, glucose-6-phosphate dehydrogenase: 1.8 U/mL) 25 μL, and a model substrate (CYP3A4: midazolam 1 mM, CYP2D6: bufuralol 1 mM, CYP2C9: diclofenac 2 mM) 0.5 μL dissolved in DMSO were added to start the reaction. After incubation at 37° C. for 10 min., acetonitrile (200 μL) containing an internal standard substance (propranolol 1 μM) was added and the mixture was centrifuged (room temperature, 3000 rpm, 20 min). The amount of the metabolite produced from each model substrate in the supernatant was measured by high performance liquid chromatography/mass spectrometry (LC/MS/MS) and each CYP enzyme activity was determined. The concentration showing 50% inhibition (IC50) was calculated relative to the enzyme activity without addition of Example compound (DMSO 0.5 μL added) as 100%.

One compound from patent US20080064871A1, “Production Method of Nitrogen-Containing Fused Ring Compounds” (Japan Tobacco Inc., priority 2006, published 2008) can be followed below.

Each structure is given as a SMILES string.

T2 sequence (P11712 whole entry): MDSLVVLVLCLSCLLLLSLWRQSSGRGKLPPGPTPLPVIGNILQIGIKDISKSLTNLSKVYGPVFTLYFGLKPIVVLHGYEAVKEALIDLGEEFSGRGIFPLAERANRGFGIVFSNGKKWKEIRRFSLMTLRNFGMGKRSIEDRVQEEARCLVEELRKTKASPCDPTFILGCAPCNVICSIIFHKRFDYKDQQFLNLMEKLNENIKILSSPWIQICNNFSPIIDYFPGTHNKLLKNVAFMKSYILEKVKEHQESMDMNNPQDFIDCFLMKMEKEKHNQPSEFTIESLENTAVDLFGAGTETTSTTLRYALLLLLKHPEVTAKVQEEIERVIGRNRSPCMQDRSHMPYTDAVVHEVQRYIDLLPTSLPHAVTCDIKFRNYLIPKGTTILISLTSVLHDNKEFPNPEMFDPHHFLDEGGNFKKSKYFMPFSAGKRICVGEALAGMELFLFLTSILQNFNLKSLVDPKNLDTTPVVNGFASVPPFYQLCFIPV

Take `O=C(c1cc(Cl)c(O)c(Cl)c1)N1CCCOc2ccccc21` [Example 94]: at human URAT1, the IC50 was in the range of 0.1 to 1 µM. Besides, the IC50 at 10 min on CYP2C9 came out at 6 µM.
